From patent publication US20230088286A1, “USP7 INHIBITOR FOR USE IN THE TREATMENT OF CANCER” (ALMAC DISCOVERY LIMITED, priority 2020, published 2023)
pEC50, pIC50: −log10 of the molar value.

Assays:
HDF and HUVEC co-culture = test: In vitro co-culture tube formation assay; type: cell-based, human; settings: for tube formation, pre-formed tubes: treated after tube formation; for tube length, de novo tube formation: treated prior to tube formation, 14 days
Protocol: Representative pictures taken at day 14 are shown. Tube formation was quantified by measuring tube length ([…]) and is shown.
HDF were seeded in 96-well plate (2500 cells/well). Once HDF formed a monolayer, media was removed and HUVECs (2500 cells/well) were seeded on top of HDF. […] The effect on existing vessels was assayed by allowing tubes to form prior to treatment. Cells were treated every 3-days during 14 days of incubation, followed by washing with PBS and fixation with 4% formaldehyde for 15 min at room temperature (RT). Cells were permeabilized with 1× PBS containing 0.1% Triton X-100 for 5 min at RT and blocked 30 min in 1% BSA/PBS. Afterwards, cells were incubated with CD31 antibody (Thermo Fisher, MA5-13188) […] followed by incubation with secondary Alexa fluor 488F goat-anti-mouse (Thermo Fisher, A28175) at 1/2000 dilution for 3 h at RT. Immunolabeled samples were counterstained with Hoechst 33342 nuclear dye (Thermo Fisher, 62249) at 1/1000 dilution for 15 min. Tubes were visualized with IN Cell Analyzer 2000 using a 2× objective. Tube length was measured and quantified using the AngioTool software for each imaging session (available in the public domain at https://ccrod.cancer.gov/confluence/display/ROB2/Downloads

[1] = tested on: CT-26 mouse cancer cell line; test: CT-26 cell viability in vitro; type: cell-based
Protocol: CT-26 syngeneic models are in vivo models to monitor the effect of compounds on the TME. […] After 72 hours cell viability was measured by CellTiter-Glo®.

[2] = tested on: primary human fibroblasts (HDF) in hypoxic chamber; test: sVEGF ELISA in primary fibroblasts under hypoxia; type: cell-based; settings: 48 h
From the text: FIG. 9: USP7 inhibition decreases VEGF levels in fibroblasts under hypoxia.
In response to wounding and during tumour growth, activated fibroblasts secrete synthesizers and modifiers of the ECM but also soluble angiogenic growth factors such as VEGF. Although VEGF gene expression can be controlled by multiple transcription factors, its major regulator is hypoxia-inducible factor 1 (HIF-1). HIF-1 mediates activation of VEGF transcription in response to hypoxia in solid tumours and in various malignant cell lines.
To assess its potency in a functional assay, HDF were treated with vehicle or various concentrations of USP7 inhibitor ADC-159 and incubated for 48 hours in hypoxic chamber. Cell culture supernatants were collected, and secreted VEGF was measured by ELISA.
For the co-culture experiments, 5×10^4 cancer cells were seeded in transwell in 0.5 mL complete growth medium and placed on the top of 0.1×10^6 fibroblasts plated in 12-well in 1 mL low serum growth media overnight. Following day cancer cells were washed with PBS and media replaced with reduced (1%) serum growth media. 0.5×10^6 PBMC were plated on top of fibroblasts, incubated for 45 min and activated with CD3 (1 μg/ml final concentration) and CD28 (5 μg/ml final concentration). […] Monoculture experiments, 0.1×10^6 cells were seeded in 12-well in 1 mL of complete growth media (cancer cells) or low serum growth media (fibroblasts) and incubated overnight. […] Afterwards, cell culture media was collected, cell debris were removed by centrifugation the concentration of VEGF in the cell culture supernatants was measured using the human/mouse VEGF immunoassay Quantikine ELISA kit (R&D systems, Minneapolis, Minn., USA) according to the manufacturer's instructions. For the intracellular VEGF detection, total protein concentration was determined by BCA (Pierce Chemical, USA) and VEGF levels determined using the same kit described above.

HUVEC = test: Matrigel tube formation assay; type: cell-based, human; settings: 6 hours
Protocol: FIG. 28: USP7 inhibition has no direct effect on HUVEC tube formation in vitro. […] The tube formation images were taken after 6 h after tube initiation.
Each well of a pre-chilled 96-well plate was coated with 50 μL of unpolymerized growth factor reduced Matrigel® (9.2 mg/mL) and incubated at 37° C. in 5% CO2 for 2 h. HUVECs were harvested with trypsin, and 1.5×10^4 cells were resuspended in 100 μL complete endothelial cell growth medium. […] After approximately 6 hours of incubation at 37° C. in 5% CO2, images of the center of each were taken at 4× magnification.

[3] = tested on: CT-26 tumour cells in BALB/c mouse; test: CT-26 syngeneic tumour model with immune checkpoint inhibitors (ADC-159 study); type: in vivo
Protocol: FIG. 38: Effect of USP7 inhibition in combination with immune checkpoint inhibitors […] on the tumour microenvironment in vivo. […] Tumour volume of CT-26 xenograft implanted in immuno-competent syngeneic mice treated with vehicle control, ADC-159, anti-PD-L1, anti-CTLA-4 or in combination was measured twice weekly until day 13 post tumour implantation.
FIG. 39: USP7 inhibition leads to increase survival when combined with anti-PD-L1 and anti-CTLA-4 immune checkpoint inhibitors. […] (B) Individual growth curves show improved anti-tumour response when USP7 inhibitor ADC-159 is combined with ICIs. n=10 animals/group.
For the immune checkpoint inhibitor in vivo experiments, BALB/c mouse was injected subcutaneously in the right rear flank with 5×10^5 viable CT-26 tumour cells in 0.1 mL of PBS. ADC-159 (75 mg/kg and 100 mg/kg) was dosed daily while anti-PD-L1 or anti-CTLA4 (10 mg/kg) were dosed every 3 days. Tumour volume (mm^3) was measured with callipers three times a week using the equation: Tumour Volume (TV)=0.5((W)^2×L), where W is the shortest tumour diameter (width) and L is the longest perpendicular diameter (length), in millimetres. Body weights were measured on the same days during the dosing phase. […] Graphing and statistical analysis of tumour volume using one-way ANOVA followed by Dunnett's multiple comparisons test. […]

Caco-2 permeability = type: in vitro ADME; settings: human, Caco-2; read-out: Caco-2 Papp ratio
Caco-2 = Caco-2 permeability; type: in vitro ADME
USP7 = USP7 (Homo sapiens, UniProt Q93009); test: TE (HCT116); type: cell-based
2D6 = 2D6 (Homo sapiens, UniProt P10635); test: Cyp inhibition 2D6; type: in vitro ADME; settings: read-out: Cyps: 2D6
2D6, sequence (P10635 whole entry): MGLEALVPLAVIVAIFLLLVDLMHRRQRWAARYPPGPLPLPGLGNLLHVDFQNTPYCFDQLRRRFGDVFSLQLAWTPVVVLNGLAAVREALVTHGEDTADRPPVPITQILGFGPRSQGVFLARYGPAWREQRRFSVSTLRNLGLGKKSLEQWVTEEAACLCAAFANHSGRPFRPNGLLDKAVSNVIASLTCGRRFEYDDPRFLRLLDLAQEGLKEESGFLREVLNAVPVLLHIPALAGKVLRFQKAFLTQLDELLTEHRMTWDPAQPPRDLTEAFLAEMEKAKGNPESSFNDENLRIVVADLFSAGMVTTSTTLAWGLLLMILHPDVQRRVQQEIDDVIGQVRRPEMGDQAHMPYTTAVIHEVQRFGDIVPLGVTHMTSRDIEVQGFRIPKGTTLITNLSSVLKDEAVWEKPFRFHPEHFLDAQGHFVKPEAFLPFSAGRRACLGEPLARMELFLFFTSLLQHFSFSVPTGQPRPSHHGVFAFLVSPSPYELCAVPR

USP7, sequence (Q93009 whole entry): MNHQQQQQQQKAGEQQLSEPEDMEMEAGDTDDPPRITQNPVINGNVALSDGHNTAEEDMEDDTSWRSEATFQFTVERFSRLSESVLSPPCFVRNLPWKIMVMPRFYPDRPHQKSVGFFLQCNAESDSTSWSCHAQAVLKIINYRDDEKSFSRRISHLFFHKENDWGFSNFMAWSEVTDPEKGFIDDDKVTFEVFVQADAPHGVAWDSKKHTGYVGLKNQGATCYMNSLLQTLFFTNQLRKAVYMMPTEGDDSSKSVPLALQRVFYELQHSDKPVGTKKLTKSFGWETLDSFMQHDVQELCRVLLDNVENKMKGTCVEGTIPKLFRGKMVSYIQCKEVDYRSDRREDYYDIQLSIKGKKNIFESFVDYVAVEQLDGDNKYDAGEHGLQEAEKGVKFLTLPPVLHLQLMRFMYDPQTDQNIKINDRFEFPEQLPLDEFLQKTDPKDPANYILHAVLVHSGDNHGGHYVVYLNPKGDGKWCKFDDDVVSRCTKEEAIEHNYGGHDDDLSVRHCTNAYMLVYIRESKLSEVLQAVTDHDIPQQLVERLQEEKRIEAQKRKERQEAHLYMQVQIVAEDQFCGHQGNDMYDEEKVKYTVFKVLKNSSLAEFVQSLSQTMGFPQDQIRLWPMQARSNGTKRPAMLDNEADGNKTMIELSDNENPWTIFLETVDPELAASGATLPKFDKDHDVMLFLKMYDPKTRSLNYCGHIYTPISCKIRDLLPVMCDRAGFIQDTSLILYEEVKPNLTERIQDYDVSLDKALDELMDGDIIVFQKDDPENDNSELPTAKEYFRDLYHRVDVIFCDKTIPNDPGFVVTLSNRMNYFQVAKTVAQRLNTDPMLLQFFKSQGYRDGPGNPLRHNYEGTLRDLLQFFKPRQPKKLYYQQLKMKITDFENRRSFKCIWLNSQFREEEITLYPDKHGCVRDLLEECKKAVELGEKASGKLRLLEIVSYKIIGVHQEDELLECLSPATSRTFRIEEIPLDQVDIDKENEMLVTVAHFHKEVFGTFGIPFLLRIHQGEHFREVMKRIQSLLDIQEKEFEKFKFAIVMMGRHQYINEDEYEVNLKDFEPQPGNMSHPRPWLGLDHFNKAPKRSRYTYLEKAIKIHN

Compound | tube formation, pre-formed tubes (HDF and HUVEC co-culture) | tube length, de novo tube formation (HDF and HUVEC co-culture) | sensitivity of CT-26 cell line in vitro [1] | VEGF secretion under hypoxia [2] | HUVEC tube formation on Matrigel (HUVEC) | tumour growth inhibition (TGI) ([3]; Day 13) | survival ([3]; Kaplan-Meier, compared to vehicle controls) | efflux ratio (Caco-2 permeability) | Caco-2 A:B (Caco-2; A:B) | Caco-2 B:A (Caco-2; B:A) | pEC50 (USP7) | pIC50 (2D6)
C[C@H](CC(=O)N1CCC(O)(Cn2cnc3c(-c4ccc(CN)cc4)n(C)nc3c2=O)CC1)c1ccccc1 [AD-04, (R)-3-(4-(Aminomethyl)phenyl)-6-((4-hydroxy-1-(3-phenylbutanoyl)piperidin-4-yl)methyl)-2-methyl-2H-pyrazolo[4,3-d]pyrimidin-7(6H)-one] | significantly less pronounced | significant reduction | not sensitive | decreased in a dose-dependent manner | did not disrupt | – | – | – | – | – | – | –
CC1(C(=O)N2CCC(O)(Cn3cnc4c(cc(Cl)n4-c4ccc5c(c4)CCO5)c3=O)CC2)CC1 [ADC-159, 6-Chloro-7-(2,3-dihydrobenzofuran-5-yl)-3-((4-hydroxy-1-(1-methylcyclopropane-1-carbonyl)piperidin-4-yl)methyl)-3,7-dihydro-4H-pyrrolo[2,3-d]pyrimidin-4-One] | did not have significant effect | inhibitory effect | not sensitive | decreased VEGF levels in a dose-dependent manner | – | 23% | modest but significant increase | 4.1 | 8.5 | 34.7 | 6.90 | < 4.70
